A short description of data set [1]: physchem. The text has this: The reduction attributes of these compounds are subject to pH conditions, specifically, in the alkaline media of the cement mixture where the pH is around 12.
Data set [2] can be described thus: Dimerization of thiol monomers under oxidizing conditions, evaluated by reverse-phase HPLC. The class given is physicochemical. Conditions: about 0.56 M thiol, 10% NaOH, 3.0% hydrogen peroxide. The method, then:
In this example, reference will be made to FIGS. 1 and 2. In this example, the role of thiol group was evaluated by oxidizing the monomers generating a dimer. About 10% by volume aqueous NaOH solution was added to about 0.56 M of mercapto (thiol) series (cysteine, cysteine methyl ester, beta-mercaptoethanol, and dithiothreitol), then a […] step was performed using about 3.0% by volume aqueous solution of hydrogen peroxide. Subsequently, centrifugation was performed at about 3000 rpm for about 5 minutes, then the supernatant was discarded and the pellets were recrystallized followed by rinsing with a few drops of cold water.
The dimerization process was evaluated using reverse-phase HPLC. For the analysis, about 5 μL injection volume was used. The mobile phase consisted of a mixture of acetonitrile and water in a ratio of about 65:35. […] Two distinct peaks were identified at distinct retention times.
The modification of the carboxylic group to a methyl ester increased the acidity of the ammonium protons relative to the thiol protons. […] The inhibitory effect of the ester group on disulfide bond formation was attributed to the presence of the methyl ester group in cysteine methyl ester.

We go through six compounds from patent US20250214896A1, “THIOL / SULFIDE CONTAINING CONCRETE COMPOSITION” (Yarmouk University, priority 2024, published 2025).

The pKa is the pH at which an ionisable group is half protonated. A high value points to a weaker acid or stronger base.

For `OCC(O)C(S)CS` (stereo not drawn) [3,4-disulfanylbutane-1,2-diol, 3,4-disulfanyl-butane-1,2-diol], the pKa came to 15.8 in data set [1] (pKa of the primary OH), 8.93 in data set [1] (pKa of the primary SH), 14.3 in data set [1] (pKa of the secondary OH) and 7.98 in data set [1] (pKa of the secondary SH).
On to `COC(=O)[C@@H](N)CS` [cysteine methyl ester], for which the pKa in data set [1] was 6.86; in data set [1] (pKa of the NH2), 7.93. For the same compound, the “dimer (disulfide) formation on oxidation” value in data set [2] was “unable to form a dimer”.
For the compound β-mercapto ethanol [β-mercaptoethanol], in data set [1], the “pKa of the OH” value worked out at 16.25 and the “pKa of the SH” value is reported as 8.51.
Take `O[C@H](CS)[C@H](O)CS` (racemic) [dithiothreitol]: the figures for the pKa in data set [1] (pKa of the first SH) and in data set [1] (pKa of the second SH) were 8.12 and 8.72, respectively.
With `N[C@@H](CS)C(=O)O` [cysteine], the pKa turned out to be 2.35 in data set [1] (pKa of the COOH), 9.54 in data set [1] (pKa of the NH2) and 6.61 in data set [1] (pKa of the SH). The “dimer (disulfide) formation on oxidation” value in data set [2] is on record as “successful formation of cysteine dimer”.
On to `OCC(S)CS` (stereo not drawn) [2,3-disulfanylpropan-1-ol], for which the pKa in data set [1] (pKa of the OH) was determined as 15.8; in data set [1] (pKa of the primary SH), 8.95; in data set [1] (pKa of the secondary SH) it was 8.05.
